Test: xn = mol fraction of the nth substance listed
Details: 100 kPa, Liquid; for speed of sound: Frequency=2 MHz, Linear variable-path acoustic interferometer; for mass density: Vibrating tube method

CCCCOCCO [2-butoxyethan-1-ol] + OCc1ccccc1
Details | mass density, 298.15 K [kg/m3] | mass density, 303.15 K [kg/m3] | mass density, 308.15 K [kg/m3] | mass density, 313.15 K [kg/m3] | mass density, 318.15 K [kg/m3] | speed of sound, 298.15 K [m/s] | speed of sound, 308.15 K [m/s]
x2 = 0 | 896.46 | 892.22 | 887.97 | 883.7 | 879.42 | 1305 | 1275
x2 = 0.1042 | 909.14 | 904.89 | 900.6 | 896.2 | 891.93 | 1329 | 1296
x2 = 0.2038 | 921.94 | 917.61 | 913.28 | 908.82 | 904.49 | 1352 | 1317
x2 = 0.299 | 934.77 | 930.34 | 925.95 | 921.47 | 917.11 | 1373 | 1337
x2 = 0.3902 | 947.51 | 942.98 | 938.56 | 934.1 | 929.63 | 1394 | 1356
x2 = 0.4776 | 960.11 | 955.52 | 951.03 | 946.55 | 942.13 | 1413 | 1375
x2 = 0.5614 | 972.47 | 967.75 | 963.31 | 958.86 | 954.41 | 1433 | 1394
x2 = 0.6418 | 984.52 | 979.84 | 975.34 | 970.91 | 966.56 | 1452 | 1412
x2 = 0.7191 | 996.35 | 991.7 | 987.22 | 982.84 | 978.55 | 1470 | 1430
x2 = 0.7933 | 1007.85 | 1003.3 | 998.89 | 994.59 | 990.4 | 1486 | 1446
x2 = 0.8648 | 1019.13 | 1014.73 | 1010.48 | 1006.26 | 1002.24 | 1503 | 1463
x2 = 0.9336 | 1030.15 | 1025.98 | 1021.88 | 1017.81 | 1013.89 | 1519 | 1479

CCOCCO [2-ethoxyethan-1-ol] + OCc1ccccc1
Details | mass density, 298.15 K [kg/m3] | mass density, 303.15 K [kg/m3] | mass density, 308.15 K [kg/m3] | mass density, 313.15 K [kg/m3] | mass density, 318.15 K [kg/m3] | speed of sound, 298.15 K [m/s] | speed of sound, 308.15 K [m/s]
x2 = 0 | 925.36 | 920.72 | 916.11 | 911.47 | 906.9 | 1301.4 | 1274.8
x2 = 0.0793 | 936.7 | 931.63 | 926.88 | 922.19 | 917.52 | 1320 | 1291
x2 = 0.1593 | 947.73 | 942.59 | 937.61 | 932.97 | 928.22 | 1339 | 1308
x2 = 0.2401 | 958.4 | 953.27 | 948.33 | 943.6 | 938.75 | 1358 | 1325
x2 = 0.3215 | 968.73 | 963.72 | 958.87 | 954.15 | 949.14 | 1378 | 1342
x2 = 0.4037 | 978.84 | 973.92 | 969.17 | 964.42 | 959.34 | 1399 | 1360
x2 = 0.4866 | 988.63 | 983.76 | 979.06 | 974.35 | 969.28 | 1419 | 1379
x2 = 0.5703 | 998.17 | 993.33 | 988.65 | 984.06 | 979.07 | 1440 | 1398
x2 = 0.6547 | 1007.45 | 1002.6 | 997.97 | 993.39 | 988.67 | 1460 | 1417
x2 = 0.7398 | 1016.35 | 1011.53 | 1006.89 | 1002.53 | 998.04 | 1480 | 1437
x2 = 0.8257 | 1024.9 | 1020.21 | 1015.71 | 1011.52 | 1007.24 | 1499 | 1456
x2 = 0.9125 | 1033.23 | 1028.71 | 1024.47 | 1020.44 | 1016.45 | 1517 | 1476

OCc1ccccc1 [benzenemethanol] + COCCO
Details | mass density, 298.15 K [kg/m3] | mass density, 303.15 K [kg/m3] | mass density, 308.15 K [kg/m3] | mass density, 313.15 K [kg/m3] | mass density, 318.15 K [kg/m3] | speed of sound, 298.15 K [m/s] | speed of sound, 308.15 K [m/s]
x1 = 0.0979 | 974.27 | 969.06 | 963.98 | 958.77 | 953.4 | 1359 | 1319
x1 = 0.1928 | 985.51 | 980.26 | 975.04 | 969.7 | 964.14 | 1377 | 1337
x1 = 0.2847 | 995 | 989.74 | 984.55 | 979.32 | 973.82 | 1395 | 1354
x1 = 0.3739 | 1003.23 | 998.13 | 992.96 | 987.81 | 982.44 | 1413 | 1371
x1 = 0.4604 | 1010.46 | 1005.46 | 1000.42 | 995.25 | 990.02 | 1430 | 1388
x1 = 0.5443 | 1016.87 | 1011.91 | 1006.93 | 1001.91 | 996.67 | 1447 | 1405
x1 = 0.6258 | 1022.61 | 1017.7 | 1012.79 | 1007.81 | 1002.65 | 1463 | 1421
x1 = 0.7049 | 1027.69 | 1022.84 | 1018.04 | 1013.09 | 1007.91 | 1478 | 1437
x1 = 0.7818 | 1032.17 | 1027.39 | 1022.66 | 1017.74 | 1012.63 | 1493 | 1452
x1 = 0.8565 | 1035.9 | 1031.28 | 1026.79 | 1022.07 | 1017.05 | 1507 | 1467
x1 = 0.9292 | 1038.94 | 1034.49 | 1030.32 | 1025.92 | 1021.35 | 1521 | 1482
x1 = 1 | 1041.05 | 1037.15 | 1033.32 | 1029.46 | 1025.59 | 1534.5 | 1496

— the NIST ThermoML archive (doi:10.1016/j.jct.2015.08.040)
